Source: patent US4540664A, “Method of saccharifying cellulose” (The United States of America as represented by the United …, priority 1983, dated 1985)

System: extracellular cellulase of Clostridium thermocellum ATTC 27405
Assay: Saccharification of Avicel by desalted cellulase, followed by the decrease in turbidity at 660 nm
Type: biochemical
Conditions: Avicel substrate
Procedure: In these experiments 50 μg of the protein that had been desalted by passage through the gel filtration resin was incubated with 3 mg of the substrate in 3 ml of substrate buffer. The buffer was 0.1M succinic acid/NaOH with a pH of 5.5. The suspension was diluted to 5 ml. No Ca^2+ was added. The cellulase activity was monitored by the decrease in turbidity of the suspension measured at 660 nm. By this method, the turbidity of the suspension decreases as more cellulose is saccharified, and less light is absorbed.
The reaction conditions were the same as for the samples used in FIG. 1 except that each sample included 5 mM DTT and either no additions, 10 mM EDTA, 7 mM CaCl2, or 7 mM MgCl2.

effect of DTT on rate of saccharification (5 mM DTT, no Ca2+ added, pH 5.5 (FIG. 1)) | Compound | effect of DTT on extent and duration of saccharification (2 mM DTT, no Ca2+ added, pH 5.5, compared with no reducing agent (FIG. 1)) | effect of EDTA on saccharification (10 mM EDTA, 5 mM DTT, 0.1M succinic acid/NaOH pH 5.5 (FIG. 2))
rate of saccharification is greater | O[C@H](CS)[C@H](O)CS (racemic) [DTT, dithiothreitol] | saccharification continues over 90 hours and is much more extensive | –
– | O=C(O)CN(CCN(CC(=O)O)CC(=O)O)CC(=O)O [EDTA] | – | completely inhibits saccharification
